Values joined by “and” are separate entries in the source; they are usually repeats but may differ in a detail not shown here. Identical values can stand only once.
Legend:
Assay type in all cases: cell-based
kinases in BCWM.1 cells [1] = biological target: kinases in BCWM.1 cells (Homo sapiens, UniProt Q8IU85); assay: KINATIV assay of compounds I-3 and I-9, lysate directly labeled with ATP-biotin probe (no GF); conditions: CaMKld; Lys1; 1 μM; no GF
Procedure: (§1) The cells were harvested and lysed. […] Bound kinases were identified and quantitated by ACTIVX as described in Patricelli et al., Biochemistry, 2007, 46(2): 350-358. The compounds were tested in duplicates against duplicate or quadruplicate control samples.

kinases in BCWM.1 cells [2] = biological target: kinases in BCWM.1 cells (Homo sapiens, UniProt P09769); assay: as above; conditions: FGR; Activation Loop; 1 μM; no GF
Procedure: as §1

kinases in BCWM.1 cells [3] = biological target: kinases in BCWM.1 cells (Homo sapiens, UniProt Q16566); assay: as above; conditions: CaMK4; Lys2; 1 μM; no GF
Procedure: as §1

kinases in BCWM.1 cells [4] = biological target: kinases in BCWM.1 cells (Homo sapiens, UniProt P52333); assay: as above; conditions: JAK3 domain2; Activation Loop; 1 μM; no GF
Procedure: as §1

kinases in BCWM.1 cells [5] = biological target: kinases in BCWM.1 cells (Homo sapiens, UniProt Q13418); assay: as above; conditions: ILK; Protein Kinase Domain; 1 μM; no GF
Procedure: as §1

kinases in BCWM.1 cells [6] = biological target: kinases in BCWM.1 cells (Homo sapiens, UniProt Q00534); assay: as above; conditions: CDK6; Lys2; 1 μM; no GF
Procedure: as §1

kinases in BCWM.1 cells [7] = biological target: kinases in BCWM.1 cells (Homo sapiens, UniProt P29323); assay: as above; conditions: EphB2; Activation Loop; 1 μM; no GF
Sequence of kinases in BCWM.1 cells (Homo sapiens, UniProt P29323) (P29323 19-1055 limits assumed): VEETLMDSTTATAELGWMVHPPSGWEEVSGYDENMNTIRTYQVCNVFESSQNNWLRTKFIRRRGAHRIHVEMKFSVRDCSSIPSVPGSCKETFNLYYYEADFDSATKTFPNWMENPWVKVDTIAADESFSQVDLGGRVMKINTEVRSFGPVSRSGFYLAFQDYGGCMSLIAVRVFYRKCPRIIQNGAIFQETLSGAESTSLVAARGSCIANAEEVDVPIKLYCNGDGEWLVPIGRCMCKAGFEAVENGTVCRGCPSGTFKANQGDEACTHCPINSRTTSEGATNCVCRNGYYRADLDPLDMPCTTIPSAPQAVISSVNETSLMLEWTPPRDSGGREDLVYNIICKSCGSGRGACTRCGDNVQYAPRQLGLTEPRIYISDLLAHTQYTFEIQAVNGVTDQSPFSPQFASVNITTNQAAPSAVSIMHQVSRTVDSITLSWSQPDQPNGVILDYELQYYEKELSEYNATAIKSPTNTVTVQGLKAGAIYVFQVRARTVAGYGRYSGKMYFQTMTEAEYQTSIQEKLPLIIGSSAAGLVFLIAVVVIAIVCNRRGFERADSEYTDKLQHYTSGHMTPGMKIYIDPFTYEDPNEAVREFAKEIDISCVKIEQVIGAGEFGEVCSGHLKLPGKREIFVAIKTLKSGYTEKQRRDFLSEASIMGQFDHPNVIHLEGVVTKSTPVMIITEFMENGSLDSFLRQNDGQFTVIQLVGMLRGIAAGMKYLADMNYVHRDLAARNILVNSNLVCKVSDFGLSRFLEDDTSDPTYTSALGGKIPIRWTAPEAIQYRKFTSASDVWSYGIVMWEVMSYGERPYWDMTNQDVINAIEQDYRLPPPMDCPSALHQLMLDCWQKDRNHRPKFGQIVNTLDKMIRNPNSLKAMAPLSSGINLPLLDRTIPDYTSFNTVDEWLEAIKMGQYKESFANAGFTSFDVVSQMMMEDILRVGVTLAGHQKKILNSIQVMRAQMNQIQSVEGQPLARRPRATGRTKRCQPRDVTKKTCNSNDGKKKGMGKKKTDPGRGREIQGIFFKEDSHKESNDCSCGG
Procedure: as §1

kinases in BCWM.1 cells [8] = biological target: kinases in BCWM.1 cells (Homo sapiens, UniProt Q96RR4); assay: as above; conditions: CaMKK2; Lys2; 1 μM; no GF
Sequence of kinases in BCWM.1 cells (Homo sapiens, UniProt Q96RR4) (Q96RR4 2-588 limits assumed): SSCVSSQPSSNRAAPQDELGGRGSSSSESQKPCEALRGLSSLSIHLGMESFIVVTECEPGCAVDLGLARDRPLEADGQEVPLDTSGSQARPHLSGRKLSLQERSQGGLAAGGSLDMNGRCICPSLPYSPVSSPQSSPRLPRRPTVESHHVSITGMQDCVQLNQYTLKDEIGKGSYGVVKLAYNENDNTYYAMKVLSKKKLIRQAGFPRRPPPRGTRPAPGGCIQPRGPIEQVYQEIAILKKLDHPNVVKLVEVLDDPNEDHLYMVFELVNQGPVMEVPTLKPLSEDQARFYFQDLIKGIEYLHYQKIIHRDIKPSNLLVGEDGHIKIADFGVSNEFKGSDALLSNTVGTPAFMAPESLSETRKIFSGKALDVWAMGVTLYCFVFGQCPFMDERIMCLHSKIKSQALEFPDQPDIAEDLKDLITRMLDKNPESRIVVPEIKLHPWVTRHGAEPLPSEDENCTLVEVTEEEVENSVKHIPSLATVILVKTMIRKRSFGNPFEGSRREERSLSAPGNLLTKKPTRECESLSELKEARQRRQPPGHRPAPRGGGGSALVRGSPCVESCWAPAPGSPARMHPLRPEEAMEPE
Procedure: as §1

kinases in BCWM.1 cells [9] = biological target: kinases in BCWM.1 cells (Homo sapiens, UniProt P07948); assay: as above; conditions: LYN; Lys1; 1 μM; no GF
Procedure: as §1

kinases in BCWM.1 cells [10] = biological target: kinases in BCWM.1 cells (Homo sapiens, UniProt P54762); assay: as above; conditions: EphB1; Activation Loop; 1 μM; no GF
Sequence of kinases in BCWM.1 cells (Homo sapiens, UniProt P54762) (P54762 18-984 limits assumed): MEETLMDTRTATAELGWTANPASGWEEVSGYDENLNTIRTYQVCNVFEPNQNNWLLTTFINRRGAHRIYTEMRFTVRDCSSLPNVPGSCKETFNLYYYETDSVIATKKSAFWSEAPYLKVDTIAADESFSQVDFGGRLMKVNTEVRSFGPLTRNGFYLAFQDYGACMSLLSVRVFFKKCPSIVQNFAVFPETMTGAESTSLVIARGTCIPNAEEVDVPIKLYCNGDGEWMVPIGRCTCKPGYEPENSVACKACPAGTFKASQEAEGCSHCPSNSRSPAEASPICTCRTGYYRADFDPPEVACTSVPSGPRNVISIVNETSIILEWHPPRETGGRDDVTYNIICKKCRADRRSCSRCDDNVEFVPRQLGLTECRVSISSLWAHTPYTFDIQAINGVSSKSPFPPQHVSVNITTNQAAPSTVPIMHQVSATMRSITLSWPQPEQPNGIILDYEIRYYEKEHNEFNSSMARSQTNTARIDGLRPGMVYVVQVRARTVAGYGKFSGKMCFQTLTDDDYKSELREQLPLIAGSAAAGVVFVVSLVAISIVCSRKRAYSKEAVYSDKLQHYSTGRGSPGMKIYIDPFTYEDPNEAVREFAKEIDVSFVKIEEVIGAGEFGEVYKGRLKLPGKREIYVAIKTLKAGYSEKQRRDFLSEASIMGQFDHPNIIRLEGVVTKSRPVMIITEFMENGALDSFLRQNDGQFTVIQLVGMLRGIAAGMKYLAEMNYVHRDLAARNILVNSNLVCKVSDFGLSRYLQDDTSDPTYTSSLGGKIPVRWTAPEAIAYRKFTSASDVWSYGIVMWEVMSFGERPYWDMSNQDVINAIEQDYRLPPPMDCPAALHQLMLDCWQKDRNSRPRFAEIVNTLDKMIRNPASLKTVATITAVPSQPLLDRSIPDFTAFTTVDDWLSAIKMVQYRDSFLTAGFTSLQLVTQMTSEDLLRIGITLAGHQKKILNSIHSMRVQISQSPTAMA
Procedure: as §1

kinases in BCWM.1 cells [11] = biological target: kinases in BCWM.1 cells (Homo sapiens, UniProt Q13164); assay: as above; conditions: Erk5; Lys2; 1 μM; no GF
Procedure: as §1

kinases in BCWM.1 cells [12] = biological target: kinases in BCWM.1 cells (Homo sapiens, UniProt Q8NB16); assay: as above; conditions: MLKL; Lys1; 1 μM; no GF
Procedure: as §1

kinases in BCWM.1 cells [13] = biological target: kinases in BCWM.1 cells (Homo sapiens, UniProt P28482); assay: as above; conditions: Erk2; Lys2; 1 μM; no GF
Procedure: as §1

kinases in BCWM.1 cells [14] = biological target: kinases in BCWM.1 cells (Homo sapiens, UniProt P11802); assay: as above; conditions: CDK4; Lys2; 1 μM; no GF
Sequence of kinases in BCWM.1 cells (Homo sapiens, UniProt P11802) (P11802 2-303 limits assumed): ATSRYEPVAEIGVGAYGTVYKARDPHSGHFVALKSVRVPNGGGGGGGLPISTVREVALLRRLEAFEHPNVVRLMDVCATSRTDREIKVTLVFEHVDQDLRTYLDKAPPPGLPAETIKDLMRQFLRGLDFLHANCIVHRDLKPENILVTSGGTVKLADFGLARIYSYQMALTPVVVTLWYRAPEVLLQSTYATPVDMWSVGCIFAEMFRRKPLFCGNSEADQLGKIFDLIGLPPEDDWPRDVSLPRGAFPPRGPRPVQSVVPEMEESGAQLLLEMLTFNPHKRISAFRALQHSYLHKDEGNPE
Procedure: as §1

kinases in BCWM.1 cells [15] = biological target: kinases in BCWM.1 cells (Homo sapiens, UniProt P45985); assay: as above; conditions: MAP2K4; Lys2; 1 μM; no GF
Sequence of kinases in BCWM.1 cells (Homo sapiens, UniProt P45985) (P45985 2-399 limits assumed): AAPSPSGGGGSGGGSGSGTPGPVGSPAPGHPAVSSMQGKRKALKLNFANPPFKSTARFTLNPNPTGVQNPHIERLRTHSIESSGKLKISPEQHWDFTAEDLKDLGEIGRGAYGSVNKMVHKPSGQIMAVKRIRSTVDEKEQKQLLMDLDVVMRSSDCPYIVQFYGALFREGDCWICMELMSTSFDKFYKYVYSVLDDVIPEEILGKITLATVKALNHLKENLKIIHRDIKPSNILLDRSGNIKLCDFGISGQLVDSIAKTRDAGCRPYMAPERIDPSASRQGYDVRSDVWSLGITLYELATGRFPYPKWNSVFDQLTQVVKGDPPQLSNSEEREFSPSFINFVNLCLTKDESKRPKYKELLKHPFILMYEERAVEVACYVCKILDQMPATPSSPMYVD
Procedure: as §1

kinases in BCWM.1 cells [16] = biological target: kinases in BCWM.1 cells (Homo sapiens, UniProt P42685); assay: as above; conditions: FRK; Activation Loop; 1 μM; no GF
Procedure: as §1

kinases in BCWM.1 cells [17] = biological target: kinases in BCWM.1 cells (Homo sapiens, UniProt P06239); assay: as above; conditions: LCK; Activation Loop; 1 μM; no GF
Procedure: as §1

kinases in BCWM.1 cells [18] = biological target: kinases in BCWM.1 cells (Homo sapiens, UniProt P78368); assay: as above; conditions: CK1g2; Lys2; 1 μM; no GF
Procedure: as §1

kinases in BCWM.1 cells [19] = biological target: kinases in BCWM.1 cells (Homo sapiens, UniProt P00533); assay: as above; conditions: EGFR; Lys1; 1 μM; no GF
Sequence of kinases in BCWM.1 cells (Homo sapiens, UniProt P00533) (P00533 25-1210 limits assumed): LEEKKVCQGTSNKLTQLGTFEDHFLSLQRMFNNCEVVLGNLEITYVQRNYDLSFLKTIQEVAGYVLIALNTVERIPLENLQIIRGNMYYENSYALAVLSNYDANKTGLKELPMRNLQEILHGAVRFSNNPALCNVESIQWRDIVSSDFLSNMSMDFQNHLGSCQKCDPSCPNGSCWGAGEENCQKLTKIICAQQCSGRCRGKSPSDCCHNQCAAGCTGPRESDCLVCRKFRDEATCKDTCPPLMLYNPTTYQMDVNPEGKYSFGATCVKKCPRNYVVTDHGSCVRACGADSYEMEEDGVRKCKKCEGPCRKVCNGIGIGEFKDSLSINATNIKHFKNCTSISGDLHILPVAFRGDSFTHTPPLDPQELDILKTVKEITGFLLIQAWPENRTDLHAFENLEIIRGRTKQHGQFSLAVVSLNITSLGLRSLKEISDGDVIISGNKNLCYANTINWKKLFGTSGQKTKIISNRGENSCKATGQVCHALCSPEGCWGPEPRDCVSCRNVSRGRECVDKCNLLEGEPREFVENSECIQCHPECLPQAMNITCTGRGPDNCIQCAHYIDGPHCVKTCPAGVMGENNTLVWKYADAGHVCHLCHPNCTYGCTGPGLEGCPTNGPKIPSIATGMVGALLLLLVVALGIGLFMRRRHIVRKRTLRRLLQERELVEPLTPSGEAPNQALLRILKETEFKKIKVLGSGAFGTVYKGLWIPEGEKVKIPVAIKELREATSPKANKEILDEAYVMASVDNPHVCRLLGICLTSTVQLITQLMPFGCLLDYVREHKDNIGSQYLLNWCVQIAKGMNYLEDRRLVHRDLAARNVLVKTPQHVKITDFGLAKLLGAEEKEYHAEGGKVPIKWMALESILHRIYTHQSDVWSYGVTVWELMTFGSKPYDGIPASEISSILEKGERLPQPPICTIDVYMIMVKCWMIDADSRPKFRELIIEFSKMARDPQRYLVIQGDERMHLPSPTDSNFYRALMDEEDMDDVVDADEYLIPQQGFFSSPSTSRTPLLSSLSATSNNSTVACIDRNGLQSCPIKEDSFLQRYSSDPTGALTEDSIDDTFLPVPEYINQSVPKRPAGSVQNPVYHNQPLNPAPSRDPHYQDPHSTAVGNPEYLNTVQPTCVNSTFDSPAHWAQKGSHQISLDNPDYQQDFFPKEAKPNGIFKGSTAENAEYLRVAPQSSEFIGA
Procedure: as §1

kinases in BCWM.1 cells [20] = biological target: kinases in BCWM.1 cells (Homo sapiens, UniProt P49840); assay: as above; conditions: GSK3A; Lys2; 1 μM; no GF
Sequence of kinases in BCWM.1 cells (Homo sapiens, UniProt P49840) (P49840 2-483 limits assumed): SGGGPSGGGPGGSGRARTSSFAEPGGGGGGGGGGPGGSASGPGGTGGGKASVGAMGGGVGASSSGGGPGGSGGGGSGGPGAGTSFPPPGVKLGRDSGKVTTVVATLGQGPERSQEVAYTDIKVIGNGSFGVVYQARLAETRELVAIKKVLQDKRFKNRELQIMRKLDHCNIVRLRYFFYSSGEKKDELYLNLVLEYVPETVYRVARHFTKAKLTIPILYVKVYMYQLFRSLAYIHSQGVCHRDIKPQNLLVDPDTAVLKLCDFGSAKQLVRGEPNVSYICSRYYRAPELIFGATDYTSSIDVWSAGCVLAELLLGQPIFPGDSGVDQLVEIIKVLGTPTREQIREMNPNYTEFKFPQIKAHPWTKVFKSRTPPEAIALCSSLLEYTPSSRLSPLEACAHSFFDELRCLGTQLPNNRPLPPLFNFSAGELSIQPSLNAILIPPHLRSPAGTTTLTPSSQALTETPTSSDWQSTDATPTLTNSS
Procedure: as §1

kinases in BCWM.1 cells [21] = biological target: kinases in BCWM.1 cells (Homo sapiens, UniProt Q9Y2K2); assay: as above; conditions: QSK; Lys2; 1 μM, 90 min; no GF
Procedure: as §1

kinases in BCWM.1 cells [22] = biological target: kinases in BCWM.1 cells (Homo sapiens, UniProt Q16513); assay: as above; conditions: PKN2; Lys2; 1 μM, 90 min; no GF
Procedure: as §1

kinases in BCWM.1 cells [23] = biological target: kinases in BCWM.1 cells (Homo sapiens, UniProt P41743); assay: as above; conditions: PKCi; Lys1; 1 μM, 90 min; no GF
Procedure: as §1

kinases in BCWM.1 cells [24] = biological target: kinases in BCWM.1 cells (Homo sapiens, UniProt P51956); assay: as above; conditions: NEK3; Activation Loop; 1 μM, 90 min; no GF
Procedure: as §1

kinases in BCWM.1 cells [25] = biological target: kinases in BCWM.1 cells (Homo sapiens, UniProt Q86UX6); assay: as above; conditions: YANK3; Lys2; 1 μM, 90 min; no GF
Procedure: as §1

kinases in BCWM.1 cells [26] = biological target: kinases in BCWM.1 cells (Homo sapiens, UniProt Q8TCG2); assay: as above; conditions: PI4K2B; ATP; 1 μM, 90 min; no GF
Procedure: as §1

HBL-1 = assay: CellTiter-Glo Luminescent cell viability assay; conditions: cell survival, 72 hours
Procedure: The inhibitory activities of exemplary compounds described herein against select protein kinases and cells were determined. Cell survival following treatment of exemplary compounds described herein was assessed by CellTiter-Glo® Luminescent cell viability assay (Promega). The cells were seeded into 384 well plates with the EL406 Combination Washer Dispenser (BioTek Instruments, Inc.), and a series diluted exemplary compounds (20˜0.0006 μM) were injected into the culture media with the JANUS Automated Workstation (PerkinElmer Inc.). The cells were treated for 72 hours at 37° C. with 5% CO2. Luminescent measurement is performed using the 2104 Envision® Multilabel Reader (PerkinElmer Inc.). EC50 values were calculated with […] PRISM software.

C=CC(=O)N1CC[C@H](Nc2nccc(Nc3ncc(C(=O)Nc4c(C)cccc4C)s3)n2)C1 [Example I-3]
% change of MS signal compared to control sample (kinases in BCWM.1 cells [1]): −0.4% and −5%
% change of MS signal compared to control sample (kinases in BCWM.1 cells [2]): 95.7% and 95.4%
% change of MS signal compared to control sample (kinases in BCWM.1 cells [3]): 6.8% and −0.1%
% change of MS signal compared to control sample (kinases in BCWM.1 cells [4]): −1.5% and −0.6%
% change of MS signal compared to control sample (kinases in BCWM.1 cells [5]): 3.6% and 9.7%
% change of MS signal compared to control sample (kinases in BCWM.1 cells [6]): 12.4% and 3.6%
% change of MS signal compared to control sample (kinases in BCWM.1 cells [7]): 91% and 91.6%
% change of MS signal compared to control sample (kinases in BCWM.1 cells [8]): −2.1% and 1.7%
% change of MS signal compared to control sample (kinases in BCWM.1 cells [9]): >98%
% change of MS signal compared to control sample (kinases in BCWM.1 cells [10]): 92.9% and 95.7%
% change of MS signal compared to control sample (kinases in BCWM.1 cells [11]): 3% and 8.3%
% change of MS signal compared to control sample (kinases in BCWM.1 cells [12]): −5.6% and −4.6%
% change of MS signal compared to control sample (kinases in BCWM.1 cells [13]): −1.8% and 1.1%
% change of MS signal compared to control sample (kinases in BCWM.1 cells [14]): 10.3% and 4.8%
% change of MS signal compared to control sample (kinases in BCWM.1 cells [15]): −3.9% and 1.1%
% change of MS signal compared to control sample (kinases in BCWM.1 cells [16]): 92.4% and 95.8%
% change of MS signal compared to control sample (kinases in BCWM.1 cells [17]): 92.6% and 92.7%
% change of MS signal compared to control sample (kinases in BCWM.1 cells [18]): −3.7% and −4.5%
% change of MS signal compared to control sample (kinases in BCWM.1 cells [19]): 20% and 17%
% change of MS signal compared to control sample (kinases in BCWM.1 cells [20]): 3.5% and 9%

CCC(=O)N1CC[C@H](Nc2nccc(Nc3ncc(C(=O)Nc4c(C)cccc4C)s3)n2)C1 [Example I-9]
% change of MS signal compared to control sample (kinases in BCWM.1 cells [21]): −1.8%
% change of MS signal compared to control sample (kinases in BCWM.1 cells [22]): −4.5%
% change of MS signal compared to control sample (kinases in BCWM.1 cells [23]): 16.5%
% change of MS signal compared to control sample (kinases in BCWM.1 cells [24]): −21.2%
% change of MS signal compared to control sample (kinases in BCWM.1 cells [25]): −8.6%
% change of MS signal compared to control sample (kinases in BCWM.1 cells [26]): 2.6%

C=CC(=O)N1CCC(Cn2ccc(Nc3ncc(C(=O)Nc4c(C)cccc4Cl)s3)n2)C1 (stereo not drawn) [II-1]
EC50 (HBL-1): 735 nM

From patent US10844077B2, “Thiazolyl-containing compounds for treating proliferative diseases” (Dana-Farber Cancer Institute, Inc., priority 2014, dated 2020)
